Experimental data: the NIST ThermoML archive (doi:10.1016/j.jct.2016.08.026)
Numbers after ± are expanded uncertainties.

How the values were obtained:
[1] = xn = mol fraction of the nth substance listed; conditions: 101 kPa, Liquid, Pycnometric method, x1 = 1
[2] = 101 kPa, Liquid, Pycnometric method

| Structure (SMILES) | mass density ([1]; 293.15 K) [kg/m3] | mass density ([1]; 298.15 K) [kg/m3] | mass density ([1]; 303.15 K) [kg/m3] | mass density ([1]; 308.15 K) [kg/m3] | mass density ([1]; 313.15 K) [kg/m3] | mass density ([1]; 318.15 K) [kg/m3] | mass density ([2]; 293.15 K) [kg/m3] | mass density ([2]; 298.15 K) [kg/m3] | mass density ([2]; 303.15 K) [kg/m3] | mass density ([2]; 308.15 K) [kg/m3] | mass density ([2]; 313.15 K) [kg/m3] | mass density ([2]; 318.15 K) [kg/m3] |
| --- | --- | --- | --- | --- | --- | --- | --- | --- | --- | --- | --- | --- |
| CC#N [acetonitrile] + C=CC(=O)OCCCC | 782.12 ± 1 | 776.82 ± 1 | 771.52 ± 1 | 766.21 ± 1 | 760.9 ± 1 | 755.59 ± 1 |  |  |  |  |  |  |
| CC#N [acetonitrile] + C=CC(=O)OC | 782.12 ± 1 | 776.82 ± 1 | 771.52 ± 1 | 766.21 ± 1 | 760.9 ± 1 | 755.59 ± 1 |  |  |  |  |  |  |
| CC#N [acetonitrile] + C=CC(=O)OC(C)(C)C | 782.12 ± 1 | 776.82 ± 1 | 771.52 ± 1 | 766.21 ± 1 | 760.9 ± 1 | 755.59 ± 1 |  |  |  |  |  |  |
| CC#N [acetonitrile] |  |  |  |  |  |  | 782.12 ± 1 | 776.82 ± 1 | 771.52 ± 1 | 766.21 ± 1 | 760.9 ± 1 | 755.59 ± 1 |
| C=CC(=O)OC(C)(C)C [tert-butyl acrylate] |  |  |  |  |  |  | 884.13 ± 1 | 879.66 ± 1 | 875.2 ± 1 | 870.74 ± 1 | 866.28 ± 1 | 861.82 ± 1 |
| CC#N [acetonitrile] + C=CC(=O)OCC | 782.12 ± 1 | 776.82 ± 1 | 771.52 ± 1 | 766.21 ± 1 | 760.9 ± 1 | 755.59 ± 1 |  |  |  |  |  |  |
